38 compounds from patent US20090005363A1, “Organic Compounds” (priority 2005, published 2009) can be followed below.

The assay has as its target mGluR5 (Homo sapiens, UniProt P41594). As to the kind of experiment: inhibition of the glutamate induced elevation of intracellular Ca2+ concentration. As to conditions: for inhibition at 10 µM: read-out: mGluR5 Activity inh. at 10 μM [%]; for mGluR5 Activity inh. at 10 μM [%]: inhibition of glutamate induced elevation of intracellular Ca2+ concentration at 10 μM.

Each structure is given as a SMILES string. Structures can show the parent of a compound that is named as a salt.

mGluR5, sequence (P41594 21-1180 isoform P41594-2 limits assumed): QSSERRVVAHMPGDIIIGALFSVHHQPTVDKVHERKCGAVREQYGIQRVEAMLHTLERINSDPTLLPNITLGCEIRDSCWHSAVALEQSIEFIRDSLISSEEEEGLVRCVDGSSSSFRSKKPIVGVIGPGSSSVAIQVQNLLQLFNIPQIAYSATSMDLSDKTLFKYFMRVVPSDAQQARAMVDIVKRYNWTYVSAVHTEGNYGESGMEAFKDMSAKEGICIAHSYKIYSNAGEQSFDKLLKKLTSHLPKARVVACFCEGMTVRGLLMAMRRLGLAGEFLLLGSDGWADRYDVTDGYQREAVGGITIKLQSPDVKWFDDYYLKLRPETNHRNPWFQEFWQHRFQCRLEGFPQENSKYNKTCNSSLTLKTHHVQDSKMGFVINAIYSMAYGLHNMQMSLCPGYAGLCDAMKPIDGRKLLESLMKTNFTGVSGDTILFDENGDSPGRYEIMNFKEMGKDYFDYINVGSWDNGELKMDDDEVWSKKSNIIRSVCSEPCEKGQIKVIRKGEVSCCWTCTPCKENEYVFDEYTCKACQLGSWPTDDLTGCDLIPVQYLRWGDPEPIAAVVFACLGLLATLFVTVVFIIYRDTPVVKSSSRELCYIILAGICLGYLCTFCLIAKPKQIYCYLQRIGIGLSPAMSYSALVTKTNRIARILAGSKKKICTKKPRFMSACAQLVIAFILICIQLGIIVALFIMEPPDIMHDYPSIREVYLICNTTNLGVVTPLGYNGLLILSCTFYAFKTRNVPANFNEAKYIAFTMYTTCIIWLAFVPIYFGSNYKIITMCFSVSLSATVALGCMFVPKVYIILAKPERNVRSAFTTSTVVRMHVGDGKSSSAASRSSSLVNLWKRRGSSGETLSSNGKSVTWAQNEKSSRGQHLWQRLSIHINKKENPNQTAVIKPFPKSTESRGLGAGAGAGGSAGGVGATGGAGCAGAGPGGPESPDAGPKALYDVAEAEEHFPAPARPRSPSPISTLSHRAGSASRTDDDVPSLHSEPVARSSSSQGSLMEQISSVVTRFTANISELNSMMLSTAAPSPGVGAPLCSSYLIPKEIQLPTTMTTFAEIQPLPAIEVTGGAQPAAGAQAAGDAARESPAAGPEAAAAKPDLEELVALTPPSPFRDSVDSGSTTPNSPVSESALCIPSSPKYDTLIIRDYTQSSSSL
From the text: This can be determined in vitro for example at recombinant human metabotropic glutamate receptors, especially PLC-coupled subtypes thereof such as mGluR5, using different procedures like, for example, measurement of the inhibition of the agonist induced elevation of intracellular Ca^2+ concentration in accordance with L. P. Daggett et al., Neuropharm.

On to `CC[C@@H]1CCCCN1C(=O)c1cnc(Nc2ccc(OC)nc2)c(Cl)c1` [Compound 2.24, [5-Chloro-6-(6-methoxy-pyridin-3-ylamino)-pyridin-3-yl]-((R)-2-ethyl-piperidin-1-yl)-methanone], for which the inhibition at 10 µM was determined as 97%.

As for `Cc1ccc(Nc2ncc(C(=O)N3CCC[C@@H]4CCC[C@@H]43)cc2Cl)cn1` [Compound 4.26, [5-Chloro-6-(6-methyl-pyridin-3-ylamino)-pyridin-3-yl]-(4aS,7aS)-octahydro-[1]pyridin-1-yl-methanone], the “mGluR5 Activity inh. at 10 μM [%]” value is reported as 93%. As for `CC1CCN(C(=O)c2ccc(Nc3ccc(Cl)cc3)nc2)CC1` [Compound 4.4, [6-(4-Chloro-phenylamino)-pyridin-3-yl]-(4-methyl-piperidin-1-yl)-methanone], the inhibition at 10 µM worked out at 98%. Same read-out and setting: next, `Cc1ccc(Nc2ncc(C(=O)N3CCCCC3c3ncco3)cc2Cl)cn1` (centres unmarked) [Compound 4.46, [5-Chloro-6-(6-methyl-pyridin-3-ylamino)-pyridin-3-yl]-(2-oxazol-2-yl-piperidin-1-yl)-methanone]: 94%; `CC[C@H]1CCCCN1C(=O)c1cnc(Nc2ccc(C)nc2)c(Cl)c1` [Compound 4.19, [5-Chloro-6-(6-methyl-pyridin-3-ylamino)-pyridin-3-yl]-((S)-2-ethyl-piperidin-1-yl)-methanone]: 97%. For the compound `CC1CCCN(C(=O)c2ccc(Nc3ccccc3)nc2)C1` (centres unmarked) [Compound 1.15, (3-Methyl-piperidin-1-yl)-(6-phenylamino-pyridin-3-yl)-methanone hydrochloride], the inhibition at 10 µM was found to be 88%.

For the compound `CCOc1cc(C(=O)N2CCCCC2)cnc1Nc1ccc(C)nc1` [Compound 6.7, [5-Ethoxy-6-(6-methyl-pyridin-3-ylamino)-pyridin-3-yl]-piperidin-1-yl-methanone], the inhibition at 10 µM was 35%. On the same count and under the same terms, under `O=C(c1cnc(Nc2ccc(Cl)cc2)nc1)N1CCCCCC1` [Compound 5.3, Azepan-1-yl-[2-(4-chloro-phenylamino)-pyrimidin-5-yl]-methanone] stands 87%. With `CCCC1CCC(C)CN1C(=O)c1cnc(Nc2ccc(C)nc2)c(Cl)c1` (centres unmarked) [Compound 4.52, [5-Chloro-6-(6-methyl-pyridin-3-ylamino)-pyridin-3-yl]-(5-methyl-2-propyl-piperidin-1-yl)-methanone], the inhibition at 10 µM amounted to 96%. Still for that read-out and setting: next, `CCOc1ccc(Nc2ncc(C(=O)N3CCCCC3)cc2Cl)cn1` [Compound 2.9, [5-Chloro-6-(6-ethoxy-pyridin-3-ylamino)-pyridin-3-yl]-piperidin-1-yl-methanone]: 100%; `Cc1ccc(Nc2ncc(C(=O)N3CCCCC3C(F)C(C)F)cc2Cl)cn1` (centres unmarked) [Compound 4.63, [5-Chloro-6-(6-methyl-pyridin-3-ylamino)-pyridin-3-yl]-[2-(1,2-difluoro-propyl)-piperidin-1-yl]-methanone]: 100%; `COc1ccc(Nc2ncc(C(=O)N3CCCCC3)cc2Cl)cn1` [Compound 2.8, [5-Chloro-6-(6-methoxy-pyridin-3-ylamino)-pyridin-3-yl]-piperidin-1-yl-methanone]: 96%. Consider `N#Cc1ccc(Nc2ccc(C(=O)N3CCCCC3)cn2)cc1` [Compound 1.7, 4-[5-(Piperidine-1-carbonyl)-pyridin-2-ylamino]-benzonitrile], for which the inhibition at 10 µM came out at 77%. As to `CCOCC1CCCCN1C(=O)c1cnc(Nc2ccc(C)nc2)c(Cl)c1` (centres unmarked) [Compound 4.60, [5-Chloro-6-(6-methyl-pyridin-3-ylamino)-pyridin-3-yl]-(2-ethoxymethyl-piperidin-1-yl)-methanone], the inhibition at 10 µM stood at 97%. `Cc1ccc(Nc2ccc(C(=O)N3CCCCC3C)cn2)cc1` (centres unmarked) [Compound 1.10, (2-Methyl-piperidin-1-yl)-(6-p-tolylamino-pyridin-3-yl)-methanone]: the inhibition at 10 µM was found to be 94%. For the compound `COc1cc(C(=O)N2CCCCC2)cnc1Nc1ccc(Cl)cc1` [Compound 6.3, [6-(4-Chloro-phenylamino)-5-methoxy-pyridin-3-yl]-piperidin-1-yl-methanone], the inhibition at 10 µM was 95%. Consider `Cc1cccc(C#C[C@]2(O)CCC[C@@H]3[C@H]2CCN3C(=O)c2ccc(Nc3ccc(Cl)cc3)nc2)c1` (relative stereo) [Compound 4.14, [6-(4-Chloro-phenylamino)-pyridin-3-yl]-(rel-(3aR,4S,7aR)-4-hydroxy-4-m-tolylethynyl-octahydro-indol-1-yl)-methanone], for which the inhibition at 10 µM was found to be 86%. The same measure, in the same setting: next, `O=C(c1ccc(Nc2ccc(Cl)cc2)nc1)N1CCCC2CCCCC21` (centres unmarked) [Compound 4.8, [6-(4-Chloro-phenylamino)-pyridin-3-yl]-(octahydro-quinolin-1-yl)-meth anone]: 94%; `O=C(c1cnc(Nc2ccc(Cl)cc2)c(Cl)c1)N1CC2CCC1C2` (racemic) [Compound 2.4, rac-(2-Aza-bicyclo[2.2.1]hept-2-yl)-[5-chloro-6-(4-chloro-phenylamino)-pyridin-3-yl]-methanone]: 100%; `Cc1ncc(Nc2ncc(C(=O)N3CCCCCC3)cc2Cl)cn1` [Compound 2.18, Azepan-1-yl-[5-chloro-6-(2-methyl-pyrimidin-5-ylamino)-pyridin-3-yl]-methanone]: 100%. Turning to `CCN(CC)C(=O)c1ccc(Nc2ccc(OC)cc2)nc1` [Compound 1.3, N,N-Diethyl-6-(4-methoxy-phenylamino)-nicotinamide hydrochloride], the inhibition at 10 µM was 75%. Consider `Cc1ccc(Nc2ncc(C(=O)N3CCCC4CCCC43)cc2Cl)cn1` (centres unmarked) [Compound 4.25, [5-Chloro-6-(6-methyl-pyridin-3-ylamino)-pyridin-3-yl]-(octahydro-[1]pyridin-1-yl)-methanone], for which the “mGluR5 Activity inh. at 10 μM [%]” value stood at 98%. As to `O=C(c1ccc(Nc2ccc(Cl)cc2)nc1)N1CC2CCC(CC2)C1` [Compound 4.9, (3-Aza-bicyclo[3.2.2]non-3-yl)-[6-(4-chloro-phenylamino)-pyridin-3-yl]-methanone], the inhibition at 10 µM was found to be 37%.

Turning to `Cc1ccc(Nc2ccc(C(=O)N3CCCCCC3)cn2)cn1` [Compound 4.15, Azepan-1-yl-[6-(6-methyl-pyridin-3-ylamino)-pyridin-3-yl]-methanone], the inhibition at 10 µM was 98%. On the same count and under the same terms, under `CC1(C)CCCN(C(=O)c2ccc(Nc3ccc(Cl)cc3)nn2)C1` [Compound 8.3, [6-(4-Chloro-phenylamino)-pyridazin-3-yl]-(3,3-dimethyl-piperidin-1-yl)-methanone] stands 82%. `O=C(c1ccc(Nc2ccc(Cl)cc2)nc1)N1CCOCC1` [Compound 1.17, [6-(4-Chloro-phenylamino)-pyridin-3-yl]-morpholin-4-yl-methanone hydrochloride]: the inhibition at 10 µM is 83%. The same measure, in the same setting: under `O=C(c1ccc(Nc2ccc(F)c(F)c2)nc1)N1CCCCC1` [Compound 2.3, [6-(3,4-Difluoro-phenylamino)-pyridin-3-yl]-piperidin-1-yl-methanone] stands 65%; under `CCCCC1CCCCN1C(=O)c1cnc(Nc2ccc(C)nc2)c(Cl)c1` (centres unmarked) [Compound 4.38, (2-Butyl-piperidin-1-yl)-[5-chloro-6(6-methyl-pyridin-3-ylamino)-pyridin-3-yl]-methanone], 98%. Regarding `C[C@H]1CCCN(C(=O)c2ccc(Nc3ccc(Cl)cc3)nc2)C1` [Compound 1.12a, [6-(4-Chloro-phenylamino)-pyridin-3-yl]-(S-3-methyl-piperidin-1-yl)-methanone], the “mGluR5 Activity inh. at 10 μM [%]” value amounted to 99%. For `CC[C@@H]1CCCCN1C(=O)c1cnc(Nc2ccc(C)nc2)c(Cl)c1` [Compound 4.18, [5-Chloro-6-(6-methyl-pyridin-3-ylamino)-pyridin-3-yl]-((R)-2-ethyl-piperidin-1-yl)-methanone], the inhibition at 10 µM turned out to be 97%. Turning to `CCCCC1OCCCN1C(=O)c1cnc(Nc2ccc(C)nc2)c(Cl)c1` (centres unmarked) [Compound 4.70, (2-Butyl-[1,3]oxazinan-3-yl)-[5-chloro-6-(6-methyl-pyridin-3-ylamino)-pyridin-3-yl]-methanone], the inhibition at 10 µM worked out at 96%.

As to `CC1CCCN(C(=O)c2ccc(Nc3ccc(Cl)cc3)nc2)C1` (racemic) [Compound 1.12, rac-[6-(4-Chloro-phenylamino)-pyridin-3-yl]-(3-methyl-piperidin-1-yl)-methanone], the inhibition at 10 µM came to 93%. Still for that read-out and setting: next, `Cc1ncc(Nc2ncc(C(=O)N3CCCC(C)C3)cc2Cl)cn1` (centres unmarked) [Compound 2.16, [5-Chloro-6-(2-methyl-pyrimidin-5-ylamino)-pyridin-3-yl]-(3-methyl-piperidin-1-yl)-methanone]: 97%. Take `Cc1ccc(Nc2ccc(C(=O)N3CCC[C@H](C)C3)cn2)cn1` [Compound 4.13a, (S-3-Methyl-piperidin-1-yl)-[6-(6-methyl-pyridin-3-ylamino)-pyridin-3-yl]-methanone]: the “mGluR5 Activity inh. at 10 μM [%]” value was 97%. Take `O=C(c1cnc(Nc2ccc(Cl)cc2)c(Cl)c1)N1CCCCCC1` [Compound 5.1, Azepan-1-yl-[5-chloro-6-(4-chloro-phenylamino)-pyridin-3-yl]-methanone]: the inhibition at 10 µM turned out to be 98%. Still for that read-out and setting: under `Cc1ccc(Nc2ncc(C(=O)N3CCCCC3C3CCCO3)cc2Cl)cn1` (centres unmarked) [Compound 4.44, [5-Chloro-6-(6-methyl-pyridin-3-ylamino)-pyridin-3-yl]-[2-(tetrahydro-furan-2-yl)-piperidin-1-yl]-methanone] stands 99%; under `CC1CCCN(C(=O)c2cnc(Nc3ccc(Cl)nc3)c(Cl)c2)C1` (centres unmarked) [Compound 7.1, [5-Chloro-6-(6-chloro-pyridin-3-ylamino)-pyridin-3-yl]-(3-methyl-piperidin-1-yl)-methanone], 98%. Same read-out and setting: under `CCO[C@@H]1CCCN1C(=O)c1cnc(Nc2ccc(C)nc2)c(Cl)c1` [Compound 4.74, [5-Chloro-6-(6-methyl-pyridin-3-ylamino)-pyridin-3-yl]-((R)-2-ethoxy-pyrrolidin-1-yl)-methanone] stands 92%.
